In paper PMC12426935, “On-Cell Saturation Transfer Difference NMR Spectroscopy on Ion Channels: Characterizing Negative Allosteric Modulator Binding Interactions of P2X7” (Journal of the American Chemical Society, 2025):
Where two headings read alike, the source gives them in different places.

Columns and labels:
[1] = target: T1, rat P2X7 (rP2X7) (Rattus norvegicus, UniProt Q64663); assay: fura-2 intracellular calcium assay on HEK-293 stable cell line expressing rat P2X7; format: cell-based; conditions: Rat P2X7 (Table 1), n = 3
T1 construct: expressed in transfected cells
T1 sequence (Q64663 1-595): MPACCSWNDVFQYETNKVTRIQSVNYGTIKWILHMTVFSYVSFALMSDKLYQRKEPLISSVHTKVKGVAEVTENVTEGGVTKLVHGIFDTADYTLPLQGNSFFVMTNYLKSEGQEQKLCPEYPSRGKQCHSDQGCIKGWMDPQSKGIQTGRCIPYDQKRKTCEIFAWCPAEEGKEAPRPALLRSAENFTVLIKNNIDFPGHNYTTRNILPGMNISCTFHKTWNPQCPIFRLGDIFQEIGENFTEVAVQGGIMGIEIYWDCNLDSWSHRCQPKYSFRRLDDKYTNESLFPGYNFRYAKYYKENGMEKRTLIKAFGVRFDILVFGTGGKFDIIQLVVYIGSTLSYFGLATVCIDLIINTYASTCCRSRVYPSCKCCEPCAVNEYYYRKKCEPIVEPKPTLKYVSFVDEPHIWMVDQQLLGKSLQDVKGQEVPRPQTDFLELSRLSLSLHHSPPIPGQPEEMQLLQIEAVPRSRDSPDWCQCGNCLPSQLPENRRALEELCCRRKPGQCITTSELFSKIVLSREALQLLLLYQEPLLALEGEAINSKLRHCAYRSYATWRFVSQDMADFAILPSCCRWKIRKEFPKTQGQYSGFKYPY
Protocol: (§1) Genetically edited HEK-293 cells lacking P2Y2 receptors were used to generate stable cell lines expressing human P2X7 (hP2X7), mouse P2X7 (mP2X7), rat P2X7 (rP2X7), or mutants of the hP2X7 NAM site (F88A, M105A, and F103A). Transfection was performed using lipofectamine 2000 (Fisher Scientific), and cells were subjected to Geneticin (800 μg/mL) selection for 2–3 weeks. This was followed by single cell cloning by limiting dilution in 96-well plates. Individual clones were selected for further study based on ATP-induced TO-PRO-3 uptake on a BD Cytoflex flow cytometer. Cell lines were maintained in DMEM:F12 media supplemented with 10% fetal bovine serum (PanBiotech), penicillin and streptomycin (Fisher Scientific) and kept in a humidified incubator with 5% CO2. Stable P2X7-expressing cells were kept under Geneticin selection at a concentration of 400 μg/mL. Passaging was performed twice weekly using 0.25% Trypsin-EDTA (Fisher Scientific).
(§2) P2X7 responses were measured by monitoring intracellular calcium responses using fura-2AM loaded cells. Cells were plated at 2–2.5 × 10^4 cells/well the day before experiments in 96-well plates (NUNC) coated with 50 μg/mL poly-D-lysine (Merck Millipore). A loading buffer containing 2 μM fura-2AM (HelloBio) and 250 μM sulfinpyrazone (Merck Millipore) in a low divalent buffer (145 mM NaCl, 5 mM KCl, 0.2 mM CaCl2, 10 mM HEPES, 13 mM glucose, pH 7.3) was added to cells for 45 min at 37 °C. After loading, the buffer was removed and replaced with calcium-containing extracellular solution (145 mM NaCl, 5 mM KCl, 2 mM CaCl2, 10 mM HEPES, 13 mM glucose, pH 7.3). Responses were measured using a Flexstation 3 plate reader (Molecular Devices) with dual excitation wavelengths of 340 and 380 nm and single emission wavelength of 510 nm. The sample interval was 3.5 s, and each well was recorded for 180 s. Fura-2 ratios were calculated in Softmax Pro v5.4; zero baseline was applied, and responses were measured as normalized area under the curve (AUC). Dose inhibition curves were plotted using GraphPad Prism v6 nonlinear regression (three parameter fit) and log IC50 values reported.

[2] = target: T2, mouse P2X7 (mP2X7) (Mus musculus, UniProt Q9Z1M0); assay: fura-2 intracellular calcium assay on HEK-293 stable cell line expressing mouse P2X7; format: cell-based; conditions: Mouse P2X7 (Table 1); mean in brackets, n = 3
T2 construct: expressed in transfected cells
T2 sequence (Q9Z1M0 1-595): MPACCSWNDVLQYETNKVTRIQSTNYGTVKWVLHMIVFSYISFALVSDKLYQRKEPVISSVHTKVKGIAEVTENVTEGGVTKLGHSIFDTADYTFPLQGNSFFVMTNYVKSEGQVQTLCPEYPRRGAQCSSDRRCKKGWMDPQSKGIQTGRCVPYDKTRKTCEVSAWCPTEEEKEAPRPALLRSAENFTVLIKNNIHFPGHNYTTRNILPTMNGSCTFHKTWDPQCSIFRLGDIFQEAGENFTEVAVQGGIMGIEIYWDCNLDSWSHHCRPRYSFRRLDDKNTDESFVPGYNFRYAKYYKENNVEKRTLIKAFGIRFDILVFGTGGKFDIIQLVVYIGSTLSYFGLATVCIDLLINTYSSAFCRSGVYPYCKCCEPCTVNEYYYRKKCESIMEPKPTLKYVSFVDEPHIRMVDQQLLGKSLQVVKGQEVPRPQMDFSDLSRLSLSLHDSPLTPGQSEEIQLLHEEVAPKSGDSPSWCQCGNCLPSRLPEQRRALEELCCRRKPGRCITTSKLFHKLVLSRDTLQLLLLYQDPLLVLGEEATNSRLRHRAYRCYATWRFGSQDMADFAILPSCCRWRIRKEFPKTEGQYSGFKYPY
Protocol: as §1
as §2, with “Dose inhibition curves were plotted using GraphPad Prism v6 nonlinear regression (three parameter fit) and log IC50 values reported.” left out

IC50 ([1]; log IC50 ± standard error, read-out: Log IC50 (converted)): 0.0525 µM
IC50 ([1]; mean in brackets, read-out: mean IC50): 0.0531 µM
IC50 [2]: 0.524 µM
SMILES: O=C(CC12CC3CC(CC(C3)C1)C2)Nc1cccc2nc(NCCNCCO)ccc12 [AZ10606120]
